In patent publication US8952026B2, “PRMT1 inhibitors and uses thereof” (Epizyme, Inc., priority 2013, dated 2015) one finds IC50 data, which are given here for 64 compounds.

Some results are limits rather than exact numbers.

T1 sequence (Q99873 with tags, fused parts or gaps): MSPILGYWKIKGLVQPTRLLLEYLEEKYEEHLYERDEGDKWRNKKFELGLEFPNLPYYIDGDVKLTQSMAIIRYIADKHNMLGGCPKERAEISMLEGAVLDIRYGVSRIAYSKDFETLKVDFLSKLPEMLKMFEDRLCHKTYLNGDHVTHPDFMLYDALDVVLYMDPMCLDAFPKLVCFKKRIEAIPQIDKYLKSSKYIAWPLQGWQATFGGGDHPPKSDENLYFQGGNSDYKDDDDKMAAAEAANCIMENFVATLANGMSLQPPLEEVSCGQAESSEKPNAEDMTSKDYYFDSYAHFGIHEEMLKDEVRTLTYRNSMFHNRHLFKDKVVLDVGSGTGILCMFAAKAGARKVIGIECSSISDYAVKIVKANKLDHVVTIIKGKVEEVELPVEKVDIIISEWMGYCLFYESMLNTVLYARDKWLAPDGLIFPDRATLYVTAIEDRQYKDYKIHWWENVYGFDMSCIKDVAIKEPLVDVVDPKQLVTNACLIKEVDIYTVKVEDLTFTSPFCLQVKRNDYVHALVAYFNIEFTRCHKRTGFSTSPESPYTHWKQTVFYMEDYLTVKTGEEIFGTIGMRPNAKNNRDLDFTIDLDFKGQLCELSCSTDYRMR

The assay has as its target T1, full-length human GST-tagged PRMT1 (Homo sapiens, UniProt Q99873).
T1 construct: GST-tagged PRMT1; made in house; host or cells: High Five insect cells (baculovirus, pFastBacI)
The assay can be described thus: PRMT1 Biochemical Assay (3H-SAM Flashplate, histone H4 peptide substrate). An excerpt: General Materials. S-adenosylmethionine (SAM), S-adenosylhomocysteine (SAH), bicine, Tween20, dimethylsulfoxide (DMSO), bovine skin gelatin (BSG), and Tris(2-carboxyethyl)phosphine hydrochloride solution (TCEP) were purchased from Sigma-Aldrich at the highest level of purity possible. ^3H-SAM was purchase from American Radiolabeled Chemicals with a specific activity of 80 Ci/mmol. 384-well streptavidin Flashplates were purchased from PerkinElmer.
Protein Expression. Recombinant baculovirus were generated according to Bac-to-Bac kit instructions (Life Technologies). Protein over-expression was accomplished by infecting exponentially growing High Five insect cell culture at 1.5×10^6cell/ml with 1:100 ratio of virus. Infections were carried out at 27° C. for 48 hours, harvested by centrifugation, and stored at −80° C. for purification.
Protein Purification. […] GST-tagged PRMT1 was eluted with 50 mM Tris, 2 mM glutathione, pH 7.8, dialysed in buffer A and concentrated to 1 mg/mL.
General Procedure for PRMT1 Enzyme Assays on Peptide Substrates. The assays were all performed in a buffer consisting of 20 mM Bicine (pH=7.6), 1 mM TCEP, 0.005% BSG, and 0.002% Tween 20, prepared on the day of use. […] DMSO (1 ul) was added to Columns 11, 12, 23, 24, rows A-H for the maximum signal control and 1 ul of SAH, a known product and inhibitor of PRMT1, was added to columns 11, 12, 23, 24, rows I-P for the minimum signal control. A cocktail (40 ul) containing the PRMT1 enzyme was added by Multidrop Combi (Thermo-Fisher). The compounds were allowed to incubate with PRMT1 for 30 min at room temperature, then a cocktail (10 ul) containing SAM and peptide was added to initiate the reaction (final volume=51 ul). […] The assays were stopped by the addition of non-radiolabeled SAM (10 ul) to a final concentration of 300 uM, which dilutes the ^3H-SAM to a level where its incorporation into the peptide substrate is no longer detectable. 50 ul of the reaction in the 384-well polypropylene plate was then transferred to a 384-well Flashplate and the biotinylated peptides were allowed to bind to the streptavidin surface for at least 1 hour before being washed once with 0.1% Tween20 in a Biotek ELx405 plate washer. The plates were then read in a PerkinElmer TopCount plate reader to measure the quantity of ^3H-labeled peptide bound to the Flashplate surface, measured as disintegrations per minute (dpm) or alternatively, referred to as counts per minute (cpm).
Where dpm=disintegrations per minute, cmpd=signal in assay well, and min and max are the respective minimum and maximum signal controls.
Where top and bottom are the normally allowed to float, but may be fixed at 100 or 0 respectively in a 3-parameter fit. The Hill Coefficient normally allowed to float but may also be fixed at 1 in a 3-parameter fit. Y is the % inhibition and X is the compound concentration.
What is called IC50 is the concentration that gives 50% inhibition. Compound `CNCCN(C)Cc1c[nH]nc1-c1cc(OCCOC)cc(C(F)(F)F)c1` [Compound 16] yielded an IC50 below 100 nM. To `CNCCN(C)Cc1c[nH]nc1-c1cc(Cl)c(OCC2CCC2)c(C(F)(F)F)c1` [Compound 35] belongs below 100 nM. Take `CC(C)Oc1ccc(-c2n[nH]cc2CN(C)CCN)cc1C(F)(F)F` [Compound 5]: the IC50 is below 100 nM. Turning to `CNCCN(C)Cc1c[nH]nc1-c1cc(OCCCOC)cc(C(F)(F)F)c1` [Compound 24], the IC50 was below 100 nM. For `CN(CCN)Cc1n[nH]cc1-c1cc(C(F)(F)F)cc(C(F)(F)F)c1` [Compound 7], the IC50 lay within 1010 to 3000 nM. To `CNCCN(C)Cc1n[nH]cc1-c1ccc(OCC(C)C)c(C(F)(F)F)c1` [Compound 18] belongs below 100 nM; to `CNCCN(C)Cc1c[nH]nc1-c1cc(OCc2ccccc2)cc(C(F)(F)F)c1` [Compound 37], below 100 nM. Then `CNCCN(C)Cc1c[nH]nc1-c1cccc(C(F)(F)F)c1` [Compound 1], with 101 to 1000 nM. Then `CNCCN(C)Cc1c[nH]nc1-c1cc(OCCc2ccccc2OC)cc(C(F)(F)F)c1` [Compound 50], with below 100 nM; and `CNCCN(C)Cc1n[nH]cc1-c1cc(OCC(C)C)cc(C(F)(F)F)c1` [Compound 29], with below 100 nM.

Compound `CN(CCN)Cc1n[nH]cc1-c1ccc(Oc2ccccc2)c(C(F)(F)F)c1` [Compound 26] showed a half-inhibitory concentration (IC50) below 100 nM.

`CNCCN(C)Cc1c[nH]nc1-c1cc(Oc2cccnc2)cc(C(F)(F)F)c1` [Compound 51] had an IC50 below 100 nM. Turning to `CCCOc1ccc(-c2n[nH]cc2CN(C)CCNC)cc1C(F)(F)F` [Compound 11], the IC50 was below 100 nM. Turning to `CCCOc1ccc(-c2c[nH]nc2CN(C)CCNC)cc1C(F)(F)F` [Compound 28], the IC50 was below 100 nM. `CNCCN(C)Cc1c[nH]nc1-c1cc(CCC(C)C)cc(C(F)(F)F)c1` [Compound 62] returned an IC50 below 100 nM. `COCCOc1cc(-c2n[nH]cc2CN(C)CCN)cc(C(F)(F)F)c1Cl` [Compound 56] returned an IC50 of 101 to 1000 nM. `CNCCN(C)Cc1c[nH]nc1-c1cc(Oc2cncnc2)cc(C(F)(F)F)c1` [Compound 53] gave an IC50 of 101 to 1000 nM.

As for `CNCCN(C)Cc1c[nH]nc1-c1cc(Oc2ccccn2)cc(C(F)(F)F)c1` [Compound 52], the IC50 is below 100 nM.

Compound `CNCCN(C)Cc1c[nH]nc1-c1ccc(CC(C)C)c(C(F)(F)F)c1` [Compound 34] displayed an IC50 below 100 nM.

As for `CNCCN(C)Cc1n[nH]cc1-c1ccc(OCCCOC)c(C(F)(F)F)c1` [Compound 20], the IC50 was below 100 nM. Regarding `CN(CCN)Cc1c[nH]nc1-c1ccc(Cl)c(C(F)(F)F)c1` [Compound 3], the concentration for half-maximal inhibition (IC50) was below 100 nM. With `CNCCN(C)Cc1n[nH]cc1-c1ccc(OCCC(C)C)c(C(F)(F)F)c1` [Compound 17], the IC50 is below 100 nM. To `CNCCN(C)Cc1n[nH]cc1-c1cc(OCCCOC)cc(C(F)(F)F)c1` [Compound 27] belongs 101 to 1000 nM. `CNCCN(C)Cc1c[nH]nc1-c1cc(OCCC(C)C)cc(C(F)(F)F)c1` [Compound 12] returned an IC50 below 100 nM. To `CC(C)Oc1ccc(-c2c[nH]nc2CN(C)CCN)cc1C(F)(F)F` [Compound 8] belongs below 100 nM; to `CNCCN(C)Cc1c[nH]nc1-c1cc(Oc2ccncc2)cc(C(F)(F)F)c1` [Compound 38], 101 to 1000 nM; to `CN(CCN)Cc1c[nH]nc1-c1ccc(Oc2ccccc2)c(C(F)(F)F)c1` [Compound 23], below 100 nM.

`CN(CCN)Cc1c[nH]nc1-c1ccc(F)c(C(F)(F)F)c1` [Compound 4] returned an IC50 below 100 nM.

The compound `CNCCN(C)Cc1c[nH]nc1-c1cc(OCCCC(C)=O)cc(C(F)(F)F)c1` [Compound 49] had an IC50 below 100 nM. `CNCCN(C)Cc1c[nH]nc1-c1cc(Oc2ccccc2)cc(C(F)(F)F)c1` [Compound 36] registered an IC50 below 100 nM. Then `CNCCN(C)Cc1c[nH]nc1-c1cc(C)c(OC2CCOCC2)c(C(F)(F)F)c1` [Compound 59], with below 100 nM; and `CNCCN(C)Cc1c[nH]nc1-c1ccc(OCCOC)c(C(F)(F)F)c1` [Compound 14], with below 100 nM. Regarding `CNCCN(C)Cc1c[nH]nc1-c1cc(OCCOC)c(Cl)c(C(F)(F)F)c1` [Compound 55], the IC50 lay within 101 to 1000 nM.

As for `CNCCN(C)Cc1c[nH]nc1-c1cc(C)c(OCC2CCC2)c(C(F)(F)F)c1` [Compound 58], the IC50 was below 100 nM. To `CNCCN(C)Cc1c[nH]nc1-c1cc(Cl)c(OCC2CC2)c(C(F)(F)F)c1` [Compound 41] belongs below 100 nM; to `CNCCN(C)Cc1n[nH]cc1-c1cc(OCCOC)cc(C(F)(F)F)c1` [Compound 30], 101 to 1000 nM. `CCCOc1cc(-c2n[nH]cc2CN(C)CCNC)cc(C(F)(F)F)c1` [Compound 19] had an IC50 below 100 nM. To `CNCCN(C)Cc1c[nH]nc1-c1ccc(OCCC(C)C)c(C(F)(F)F)c1` [Compound 9] belongs below 100 nM; to `CN(CCN)Cc1c[nH]nc1-c1cc(C(F)(F)F)cc(C(F)(F)F)c1` [Compound 2], 101 to 1000 nM; to `CNCCN(C)Cc1c[nH]nc1-c1cc(OCCCC(F)(F)F)cc(C(F)(F)F)c1` [Compound 48], below 100 nM.

Take `CNCCN(C)Cc1c[nH]nc1-c1cc(OC2CCCCC2)cc(C(F)(F)F)c1` [Compound 39]: the IC50 was below 100 nM. With `CNCCN(C)Cc1n[nH]cc1-c1cc(OCCC(C)C)cc(C(F)(F)F)c1` [Compound 22], the IC50 is below 100 nM. To `CNCCN(C)Cc1c[nH]nc1-c1ccc(OCC(C)C)c(C(F)(F)F)c1` [Compound 10] belongs below 100 nM; to `CNCCN(C)Cc1c[nH]nc1-c1cc(OCCOC)c(F)c(C(F)(F)F)c1` [Compound 64], below 100 nM; to `CC(C)CCc1cc(-c2n[nH]cc2CN(C)CCN)cc(C(F)(F)F)c1` [Compound 63], below 100 nM.

`CNCCN(C)Cc1c[nH]nc1-c1cc(OCCCC(=O)OC)cc(C(F)(F)F)c1` [Compound 61] came in with an IC50 below 100 nM. With `CCCOc1cc(-c2c[nH]nc2CN(C)CCNC)cc(C(F)(F)F)c1` [Compound 31], the IC50 lay within 101 to 1000 nM. Compound `CNCCN(C)Cc1c[nH]nc1-c1cc(OCC(C)C)cc(C(F)(F)F)c1` [Compound 15] yielded an IC50 below 100 nM. To `CC(C)CCOc1cc(-c2n[nH]cc2CN(C)CCN)cc(C(F)(F)F)c1Cl` [Compound 40] belongs 101 to 1000 nM. Then `CNCCN(C)Cc1c[nH]nc1-c1cc(C)c(OC2COC2)c(C(F)(F)F)c1` [Compound 66], with below 100 nM; and `CNCCN(C)Cc1c[nH]nc1-c1cc(OCCC(C)C)c(Cl)c(C(F)(F)F)c1` [Compound 54], with 101 to 1000 nM; and `CC(C)Oc1cc(-c2n[nH]cc2CN(C)CCN)cc(C(F)(F)F)c1` [Compound 6], with below 100 nM. To `CNCCN(C)Cc1c[nH]nc1-c1cc(OCC2CCC2)cc(C(F)(F)F)c1` [Compound 44] belongs below 100 nM; to `CNCCN(C)Cc1c[nH]nc1-c1cc(C)c(OCC2CCOCC2)c(C(F)(F)F)c1` [Compound 65], below 100 nM; to `CCC(CC)Oc1cc(-c2n[nH]cc2CN(C)CCNC)cc(C(F)(F)F)c1` [Compound 47], below 100 nM. Compound `CNCCN(C)Cc1n[nH]cc1-c1cc(C(O)C(C)C)cc(C(F)(F)F)c1` (stereo not shown) [Compound 32] gave a half-maximal inhibitory concentration (IC50) of 1010 to 3000 nM. To `CNCCN(C)Cc1n[nH]cc1-c1cc(Cl)c(OC(C)C)c(C(F)(F)F)c1` [Compound 33] belongs below 100 nM. `CNCCN(C)Cc1c[nH]nc1-c1cc(OCCCOC)c(Cl)c(C(F)(F)F)c1` [Compound 57] gave an IC50 below 100 nM.

Turning to `CNCCN(C)Cc1n[nH]cc1-c1ccc(OCCOC)c(C(F)(F)F)c1` [Compound 21], the IC50 was below 100 nM.

In the case of `CNCCN(C)Cc1c[nH]nc1-c1cc(OCC2CCOCC2)cc(C(F)(F)F)c1` [Compound 46], the IC50 is below 100 nM. To `CNCCN(C)Cc1c[nH]nc1-c1cc(OCC(F)(F)F)cc(C(F)(F)F)c1` [Compound 60] belongs below 100 nM; to `CNCCN(C)Cc1c[nH]nc1-c1ccc(OCCCOC)c(C(F)(F)F)c1` [Compound 13], below 100 nM. Then `CNCCN(C)Cc1c[nH]nc1-c1cc(OCC2CCCC2)cc(C(F)(F)F)c1` [Compound 45], with below 100 nM; and `CNCCN(C)Cc1c[nH]nc1-c1cc(Cl)c(OC(C)C)c(C(F)(F)F)c1` [Compound 25], with below 100 nM.
